Consider one molecule from patent US20120269725A1, “TARGETED RADIOLABELED COMPOUNDS AND THEIR USE FOR THE TREATMENT AND DIAGNOSIS OF CANCER” (priority 2009, published 2012).

In data set [1] the test system is U-87 human glioblastoma cells. Description: Clonogenic assay in U-87 cells. Format: cell-based. As to conditions: 24 h treatment at 0.5 to 5 μCi/mL; 100 and 500 cells/flask; monitored 7 weeks. How it is done:
U-87 cells were plated for 24 h before treatment and then treated for 24 h with concentrations of 6b fast and 6b slow ranging from 0.5 μCi/mL to 5 μCi/mL (18.5 to 185 kBq/mL). Cells were harvested, washed, and their numbers counted using a Cellometer® cell counter. Cells were diluted in fresh medium. Cells from each concentration of 6b fast and 6b slow were plated in three T25 flasks at two densities, 100 cells/flask and 500 cells/flask. Control cells were sham-treated with PBS and processed in a manner identical to cells treated with 6b. Cells were periodically examined and fresh medium was added every 5-7 days. Three weeks after plating, media was removed from the control flasks, cells were washed with 5 mL ice-cold PBS, followed by 5 mL PBS/methanol (1:1; v/v), and fixed in 5 mL methanol for 10 minutes. The methanol was discarded and flasks were left open to dry for a few hours. Crystal violet (5 mL; 0.25% in 1:1 PBS/methanol) was added to each flask to stain the cells. After approximately 10 min, the dye was removed and flasks were rinsed first with tap water followed by distilled water and were left to dry. […] This finding indicates the extraordinarily effective killing of U-87 cells by 6b.

Another data set has as its system IP OVCAR-3 tumors. Description: Pilot therapy of IP OVCAR-3 tumors in athymic mice. It counts as in vivo. The source says: In pilot therapy experiments, the effects of unmodified ^125IUdR on the growth of IP OVCAR-3 tumors were compared to the therapeutic effects of the 6b diastereomeric mixture and 7b diastereomeric mixture. The tumor model used in this study, OVCAR-3 cell line, was established from the malignant ascites of a patient with progressive adenocarcinoma of the ovary after many types of chemotherapy including cyclophosphamide, adriamycin, and cisplatin. OVCAR-3 is resistant in vitro to clinically relevant concentrations of adriamycin, melphalan, and cisplatin (Hamilton T C, Young R C, Louie K G, Behrens B C, McKoy W M, Grotzinger K R, Ozols R F. Characterization of a xenograft model of human ovarian carcinoma which produces ascites and intraabdominal carcinomatosis in mice. Cancer Res. 1984; 44:5286-90.). In immunodeficient mice, IP injected OVCAR-3 cells produce malignant ascites, peritoneal carcinomatosis, and serosal and visceral seeding that, if left untreated, leads to death from respiratory compromise, hemorrhage from invasion of intra-abdominal blood vessels, and bowel obstruction. Substantial literature data (nearly 100 publications) confirm that this tumor model has pathogenesis and metastatic properties similar to those of human ovarian cancer.
Mice received IP implants of approximately 2.4×10^8 OVCAR-3 cells/mouse isolated from fresh OVCAR-3 mouse ascites. Cell viability was measured before and after injection, and was ≧90%. Four days after tumor cells were implanted, the mice received SQ transponders and were randomized via a lottery into four groups: NT—untreated controls that received IP injection of PBS; 7b group—receiving IP doses of the 7b diastereomeric mixture in PBS (average 0.4 mCi/mouse (14.8 MBq)); 6b group—receiving IP doses of the 6b diastereomeric mixture in PBS (average dose 0.36 mCi/mouse (13.3 MBq)); and ^125IUdR group—receiving IP doses of ^125IUdR (average 0.43 mCi/mouse (15.9 MBq)) in PBS. Mice were monitored three times per week.
Mice in the 6b group received 0.22 mCi (8.1 MBq) 6b diastereomeric mixture on day 27; and on day 28 mice in ^125IUdR group were treated with additional 0.2 mCi (7.4 MBq) ^125IUdR. Slight differences in the dosing schedule and the administered doses are because of the required large quantities of the compounds. For these experiments, ˜20 mCi of no-carrier added and radiochemically pure compounds were required. Each agent was purified on the analytical reversed phase HPLC column. The use of preparative columns in this case is impractical because the products are recovered in large volumes of acetonitrile-containing solvent that must be evaporated to dryness before the use in mice.
Overall, mice in the 7b group were treated with an average of 0.58 mCi (21.5 MBq) 7b diastereomeric mixture; mice in the 6b group were treated with an average of 0.58 mCi (21.5 MBq) 6b diastereomeric mixture, and mice in the ^125IUdR group were treated with an average of 0.63 mCi (23.3 MBq) ^125IUdR.
The therapy was terminated 7 weeks after the first dosing. Mice were sacrificed for the biodistribution study. Blood and solid tumor were taken for the evaluation of their radioactive content. The peritoneal cavity was lavaged with 2-mL aliquots of PBS, and PBS wash and ascites were collected. One mL of the ascites suspension with cancer cells was taken for gamma counting. The rest of the abdominal fluid was centrifuged and 0.5 mL of the supernatant was reserved for gamma counting. The weight of the cell pellet and the supernatant were determined.
Two weeks after the first dose of radiolabeled compounds, the whole body radioactivity was measured to determine to what extent the additional doses of the compounds may increase the radiation burden and therefore may be detrimental to the animal health (FIG. 11B). The absolute amounts were low and ranged from […] for the 6b group to […] in the 7b group. […]

The test system of data set [2] is subcutaneous LS174T tumors (human colorectal adenocarcinoma). The experiment in a line: Biodistribution, clearance and planar imaging in athymic mice bearing subcutaneous LS174T xenografts. Format: in vivo, athymic NCr-nu/nu mice. As to conditions: for tumor uptake and retention, times higher than parent drug ^131IUdR: co-injected ^131IUdR. The protocol:
The in vivo properties and pharmacology of several compounds of the present invention were initially tested in athymic mice bearing subcutaneous LS174T tumors (human colorectal adenocarcinoma), which have several desirable properties such as rapid growth when implanted subcutaneously (SQ), good vascularization and the availability of considerable historical data for the parent compound IUdR. The clearance rates from blood, tumor, and associated organs were analyzed to determine the structure-pharmacokinetics relationship. The first compounds studied were 6b-fast and 6b-slow. Four-to-six-weeks old female athymic NCr-nu/nu mice (NCI-Frederic, Md., USA) were allowed to acclimate in Applicants' facility after delivery for no less than 5 days. All protocols involving animals were approved by the University of Nebraska Institutional Animal Care and Use Committee. Mice were housed in microisolator cages with free access to sterilized standard rodent diet and water. LS174T cells in 0.1 mL of serum-free medium were implanted SQ at 5×10^6 cells/mouse. One week later identification transponders were implanted, also SQ. Body weights and tumor sizes were monitored twice weekly, and approximately 10 days after the cell implant, mice were randomized for biodistribution studies.
Each of the two isomers, 6b-fast and 6b-slow, was tested independently in separate groups of mice. The comparison to the parent compound, IUdR, was made by co-injecting ^131IUdR with a particular ^125I-labeled diastereomer. Compounds were administered intravenously (IV) via a tail vein.
Biodistribution was conducted at 1 h, 4 h, 24 and 48 h after the administration of radiolabeled compounds (n=6 per time point). The injection doses contained approximately 1 μCi (37 kBq) ^131IUdR and 5 μCi (185 kBq) ^125I-labeled 6b-fast or 6b-slow dissolved in 0.2 mL phosphate buffered saline containing 0.1% bovine serum albumin, pH 7.2 (PBS). All syringes were weighted after loading with the compound solution and immediately after the injection to determine the weight of the injected dose. Triplicate standards of the injected dose were prepared in PBS and counted in a gamma counter just before the beginning of the experiment. The radioactive content of these standards was also determined alongside all tissues after the necropsy to correct the tissue uptake for the decay of the radioisotope. Blood, liver, spleen, heart, lungs, kidneys, brain, tumor and tail were collected during necropsy. Tissues were rinsed in ice-cold saline, patted dry and weighed. The tail was collected to validate the quality of the IV injections.
FIG. 7 presents whole body images for a typical time course distribution (24 h, 48 h, and 72 h) of 6b administered as a diastereomeric mixture in LS174T-bearing athymic mice. The images were acquired 1, 2, and 3 days after the administration of the compound. […] It is also apparent that based on pharmacokinetics, the use of these compounds can be tailored to a specific malignancy and its anatomical location.

`O=c1[nH]c(=O)n([C@H]2C[C@H](O)[C@@H](COP3(=O)OCc4ccccc4O3)O2)cc1[125I]` (some centres unmarked) [Compound 6b, 5-[^125I]-Iodo-5′-O-cycloSaligenyl-2′-deoxyuridine Monophosphate]: the colony formation result in data set [1] was “colonies were not formed”. The “whole body retention, median” value in the data set with IP OVCAR-3 tumors (after 14 days) came to 1.89 % ID. In the data set with IP OVCAR-3 tumors (after 14 days, value with spread in brackets), the whole body retention is listed as 1.87 (0.16) % ID. Further, the “reduction in solid tumor deposits as compared to ^125IUdR” value in the data set with IP OVCAR-3 tumors (diastereomeric mixtures IP, total average 0.58 mCi, 7 weeks after first dose) is about 50%. Besides, the “tumor retention compared to ^125IUdR” value with IP OVCAR-3 tumors (necropsy 4 weeks after the boost dose) was “significantly higher compared to ^125IUdR”. Further, the “tumor uptake and retention, times higher than parent drug ^131IUdR” value in data set [2] (24 hours after IV administration) was about 14 ×; in data set [2] (48 hours after IV administration), about 7 ×. Further, in data set [2] (diastereomeric mixture, images 24 h, 48 h, 72 h after IV administration), the “clearance of normal organs versus tumor (whole body images)” value is listed as “normal organs such as liver clear the compound at a much faster rate than the tumor”.
